Results: the NIST ThermoML archive (doi:10.1021/je500498m)

Test: xn = mol fraction of the nth substance listed
Settings: Liquid; for mass density / viscosity: 101 kPa; for mass density: Vibrating tube method; for speed of sound: 100 kPa, Sing-around technique in a fixed-path interferometer; for viscosity: Falling or rolling sphere viscometry

CCCCCCCCCCCCCCCC [hexadecane] + CCc1ccccc1
Settings	mass density [kg/m3]	speed of sound [m/s]	viscosity [mPa·s]
323.15 K, x2 = 0.6001	784.14	–	–
323.15 K, x2 = 0.7002	793.6	–	–
323.15 K, x2 = 0.8001	805.42	–	–
323.15 K, x2 = 0.9	820.29	–	–
333.15 K, x2 = 0	745.79	1212	1.53
333.15 K, x2 = 0.1007	749.19	1207.7	1.4
333.15 K, x2 = 0.2	753.09	1203.4	1.28
333.15 K, x2 = 0.3002	757.62	1198.8	1.15
333.15 K, x2 = 0.4013	762.96	1193.6	1.03
333.15 K, x2 = 0.5002	769.13	1188.6	0.92
333.15 K, x2 = 0.6001	776.51	1183.8	0.81
333.15 K, x2 = 0.7002	785.74	1179.2	0.7
333.15 K, x2 = 0.8001	797.18	1175.5	0.6
333.15 K, x2 = 0.9	811.8	1173.9	0.52
343.15 K, x2 = 0	738.9	–	1.31
343.15 K, x2 = 0.1007	742.2	–	1.21
343.15 K, x2 = 0.2	746	–	1.1
343.15 K, x2 = 0.3002	750.4	–	1.01
343.15 K, x2 = 0.4013	755.6	–	0.9
343.15 K, x2 = 0.5002	761.6	–	0.81
343.15 K, x2 = 0.6001	768.9	–	0.71
343.15 K, x2 = 0.7002	777.9	–	0.62
343.15 K, x2 = 0.8001	789	–	0.54
343.15 K, x2 = 0.9	803.3	–	0.47
353.15 K, x2 = 0	731.8	–	1.13
353.15 K, x2 = 0.1007	735	–	1.05
353.15 K, x2 = 0.2	738.7	–	0.96
353.15 K, x2 = 0.3002	743	–	0.88
353.15 K, x2 = 0.4013	748.1	–	0.8
353.15 K, x2 = 0.5002	754	–	0.71
353.15 K, x2 = 0.6001	761.1	–	0.64
353.15 K, x2 = 0.7002	769.8	–	0.56
353.15 K, x2 = 0.8001	780.7	–	0.49
353.15 K, x2 = 0.9	794.5	–	0.43
363.15 K, x2 = 0	724.7	–	0.99
363.15 K, x2 = 0.1007	727.8	–	0.92
363.15 K, x2 = 0.2	731.5	–	0.85
363.15 K, x2 = 0.3002	735.6	–	0.78
363.15 K, x2 = 0.4013	740.6	–	0.7
363.15 K, x2 = 0.5002	746.3	–	0.63
363.15 K, x2 = 0.6001	753.1	–	0.58
363.15 K, x2 = 0.7002	761.6	–	0.51
363.15 K, x2 = 0.8001	772.2	–	0.45
363.15 K, x2 = 0.9	785.6	–	0.39
373.15 K, x2 = 0	717.5	–	0.87
373.15 K, x2 = 0.1007	720.6	–	0.82
373.15 K, x2 = 0.2	724.1	–	0.76
373.15 K, x2 = 0.3002	728.1	–	0.69
373.15 K, x2 = 0.4013	732.9	–	0.63
373.15 K, x2 = 0.5002	738.4	–	0.57
373.15 K, x2 = 0.6001	745.1	–	0.52
373.15 K, x2 = 0.7002	753.3	–	0.47
373.15 K, x2 = 0.8001	763.6	–	0.41
373.15 K, x2 = 0.9	776.6	–	0.36
